Measured values reported in patent publication US10758542B2, “Substituted pyrazolo[l,5-a]pyrimidine compounds as Trk kinase inhibitors” (Array BioPharma Inc., priority 2009, dated 2020).

These molecules were tested against Human Jak2 kinase domain (Homo sapiens (Human), UniProt O60674) (assay: Jak2 inhibition assay (Omnia kinase)). Details: read-out: Jak2 Enzyme (% inhibition at 1000 nM), Table 1; at 1000 nM test compound.
Format: biochemical
From the text: The assays described in Examples C, D, E and F for the determination of JAK1, JAK2, JAK3 and Tyk2 kinase activity, respectively, utilized the Omnia® Kinase fluorescence peptide substrate-based technology (Invitrogen). The specific components of the assay mixture are described in Examples C, D and E. […] Two-μL aliquots of these were transferred to a fresh plate for a ten-fold intermediate dilution with assay buffer. […] Human Jak2 kinase domain comprising amino acids 808-1132 was purchased from Invitrogen Corporation, Carlsbad, Calif.

Sequence of Human Jak2 kinase domain (O60674 808-1132): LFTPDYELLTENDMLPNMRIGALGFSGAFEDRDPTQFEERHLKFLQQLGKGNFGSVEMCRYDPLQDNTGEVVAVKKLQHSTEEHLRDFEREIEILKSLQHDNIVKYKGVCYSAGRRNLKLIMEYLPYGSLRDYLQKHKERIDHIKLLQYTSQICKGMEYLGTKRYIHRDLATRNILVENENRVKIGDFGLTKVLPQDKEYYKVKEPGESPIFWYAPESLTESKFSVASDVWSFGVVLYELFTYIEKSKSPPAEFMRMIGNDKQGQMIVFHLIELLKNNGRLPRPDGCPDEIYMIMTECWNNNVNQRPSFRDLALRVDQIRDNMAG

inhibition at 1 µM	SMILES
25.2%	C[C@@H](NC(=O)c1cnn2ccc(N3CCC[C@@H]3c3cncc(F)c3)nc12)C(F)(F)F [Example 129, 5-((R)-2-(5-fluoropyridin-3-yl)pyrrolidin-1-yl)-N-((R)-1,1,1-trifluoropropan-2-yl)pyrazolo[1,5-a]pyrimidine-3-carboxamide]
14.4%	O=C(N[C@@H]1CCC[C@H]1O)c1cnn2ccc(N3CCC[C@@H]3c3cncc(F)c3)nc12 [Example 133, 5-((R)-2-(5-fluoropyridin-3-yl)pyrrolidin-1-yl)-N-((1R,2R)-2-hydroxycyclopentyl)pyrazolo[1,5-a]pyrimidine-3-carboxamide]
82.5%	CC1(O)CCC(NC(=O)c2cnn3ccc(N4CCC[C@@H]4c4cc(F)ccc4F)nc23)CC1 (stereo partly drawn) [Example 51, 5-((R)-2-(2,5-difluorophenyl)pyrrolidin-1-yl)-N-(4-hydroxy-4-methylcyclohexyl)pyrazolo[1,5-a]pyrimidine-3-carboxamide]
12.5%	CCc1ncc(F)cc1[C@H]1CCCN1c1ccn2ncc(C(=O)N[C@H]3CC[C@H](O)C3)c2n1 [Example 200, 5-((R)-2-(2-ethyl-5-fluoropyridin-3-yl)pyrrolidin-1-yl)-N-((1S,3S)-3-hydroxycyclopentyl)pyrazolo [1,5-a]pyrimidine-3-carboxamide]
